A short description of data set [1]: general in vivo properties (brain penetration, tolerance). On the procedure: (§1) Malondialdehyde assay. Lipid peroxidation was determined by measuring the levels of malondialdehyde (MDA) using a TBARS assay kit (Cayman Chemical, Ann Arbor, MI) according to the manufacturer's instructions as previously described^10. In vivo experimental compound administration. Control compound and compound 147 were suspended to a final concentration of 0.2 mg/mL in 10% DMSO. Mice were weighed prior to administration of compounds and, subsequently, non-anesthetized 10-week old WT or ATF6 cKO mice were injected with ˜250 μL of stock compounds via the lateral tail vein depending upon body mass to ensure accurate administration of 2 mg/kg. […] Since compound 147 and tunicamycin have similar molecular weights, this dose of compound 147 is near the molar equivalent of the typical dose of tunicamycin. It is relevant to note that for compound 147, a dose of 2 mg/kg is similar to FDA-approved cardiovascular drugs, such as many angiotensin-converting enzyme (ACE) inhibitors, which are used in small-animal models at 2 mg/kg^42.

The test system of data set [2] is hearts of mice that were not subjected to I/R. Nature of the data set: 7-day dosing protocols in mice not subjected to I/R: cardiac performance and safety. It is filed as in vivo, mouse. On the procedure: In vivo myocardial ischemia/reperfusion. Surgical myocardial I/R was performed as previously described^10. Briefly, mice were anesthetized with 2% isoflurane and a thoracotomy was performed to isolate the heart, after which the left anterior descending coronary artery (LAD) was ligated with a 6-0 Prolene™ suture for 30 minutes, followed by suture removal and either 24 hours or 7 days of reperfusion. Regional ischemia was confirmed by visual inspection of the discoloration of the myocardium distal of the ligation, which is characteristic of impaired blood flow. Animals assigned as shams underwent the thoracotomy surgical procedure, but weren't subjected to LAD ligation. Animals were randomly assigned to trial groups prior to outset of the experiment by a single investigator, while the surgeon and data analyst were blinded to trial assignments. Animals designated to receive either control compound or compound 147 at the time of reperfusion received 2 mg/kg of respective compounds via IV injection 5 minutes prior to release of the ligation. Twenty-four hours after reperfusion, 1% of Evans Blue was injected apically to determine the area at risk (AAR). Hearts were harvested and 1-mm sections of the hearts were stained with 1% 2,3,5-triphenyltetrazolium chloride (TTC) to measure the infarcted area (INF) as previously described^36. The AAR, INF and left ventricle area (LV) from digitized images of heart sections were analyzed using ImageJ software. […] A separate investigator analyzed the AAR, INF, and LV and was blinded to the animal trial assignments. […] Blood was placed in heparin- and EDTA-coated vacutainer (BD Vacutainer) and centrifuged at 3000 rpm for 10 minutes and plasma samples were analyzed for cardiac troponin I with a Mouse cTnI High-Sensitivity ELISA kit (Life Diagnostics, Inc.).
Hepatic triglyceride assay. Hepatic triglyceride assay was performed as previously described^39. Briefly, livers were harvested and 10 mg extracts were homogenized and analyzed for triglyceride content using the EnzyChrom Triglyceride Assay Kit™ (BioAssay Systems).
Transthoracic echocardiography. Transthoracic echocardiography was performed using an ultrasound imaging system (Vevo 2100 System™, Fujifilm VisualSonics, Toronto, Ontario, Canada) as described^40. Diastolic function was determined as previously described^33. Briefly, echocardiography coupled with pulse-wave Doppler was used to visualize transmitral flow velocities and were recorded by imaging the mitral orifice at the point of the mitral leaflets. Waveforms were recorded and analyzed for peak early- and late-diastolic transmitral flow velocities corresponding to E and A waves, respectively.
as §1, with “It is relevant to note that for compound 147, a dose of 2 mg/kg is similar to FDA-approved cardiovascular drugs, such as many angiotensin-converting enzyme (ACE) inhibitors, which are used in small-animal models at 2 mg/kg^42.” left out

The subject of data set [3] is ATF6-regulated genes Grp78 and Cat. Nature of the data set: ATF6 target gene induction in mouse tissues after intravenous administration (qPCR, IHC, immunoblot). Particulars: in vivo, mouse heart. As to the method:
(§2) Immunoblot analysis. NRVM were lysed and subjected to immunoblot analysis, as previously described^10. In brief, cultures were lysed with VC lysis buffer made from 20 mM Tris-HCl (pH 7.5), 150 mM NaCl, 0.1% SDS, 1% Triton X-100™, protease inhibitor cocktail (Roche Diagnostics, Indianapolis, IN) and phosphatase inhibitor cocktail (Roche Diagnostics). Samples comprising 10 μg of protein were mixed with Laemmli sample buffer, boiled, then subjected to SDS-PAGE followed by transfer onto PVDF membranes for immunoblotting. Full-length Atf6 (p90) was detected with an antibody from SAB Signalway™ Antibody (1:1000, cat #32008, College Park, MD), while active Atf6 (p50) was detected with an antibody from Proteintech™ (1:1000, cat #24169-1-AP, Rosemont, IL). […] The oxidation state of ATF6 in NRVM treated with compound 147 was analyzed by gel-shift essentially as previously described^32. […]
(§3) Malondialdehyde assay. Lipid peroxidation was determined by measuring the levels of malondialdehyde (MDA) using a TBARS assay kit (Cayman Chemical, Ann Arbor, MI) according to the manufacturer's instructions as previously described^10. […]
On the technique in general: Real-time PCR tracks product formation cycle by cycle.

Data set [4] concerns IRE1-regulated Erdj4, PERK-regulated Atf4. In words: qPCR for IRE1 and PERK target genes in mouse hearts. In kind it is in vivo. As to conditions: WT or ATF6 cKO mice, 24 hours after treatment, LV. On the procedure:
as §2, §3

The test system of data set [5] is acute myocardial I/R injury. Nature of the data set: acute in vivo myocardial ischemia/reperfusion. Particulars: acute I/R protocol, 24 h. The arrangement: species or system mouse. As to the method:
In vivo myocardial ischemia/reperfusion. Surgical myocardial I/R was performed as previously described^10. Briefly, mice were anesthetized with 2% isoflurane and a thoracotomy was performed to isolate the heart, after which the left anterior descending coronary artery (LAD) was ligated with a 6-0 Prolene™ suture for 30 minutes, followed by suture removal and either 24 hours or 7 days of reperfusion. Regional ischemia was confirmed by visual inspection of the discoloration of the myocardium distal of the ligation, which is characteristic of impaired blood flow. Animals assigned as shams underwent the thoracotomy surgical procedure, but weren't subjected to LAD ligation. […] The AAR, INF and left ventricle area (LV) from digitized images of heart sections were analyzed using ImageJ software. […] A separate investigator analyzed the AAR, INF, and LV and was blinded to the animal trial assignments. […] Blood was placed in heparin- and EDTA-coated vacutainer (BD Vacutainer) and centrifuged at 3000 rpm for 10 minutes and plasma samples were analyzed for cardiac troponin I with a Mouse cTnI High-Sensitivity ELISA kit (Life Diagnostics, Inc.).
Transthoracic echocardiography. […] Diastolic function was determined as previously described^33. […] Waveforms were recorded and analyzed for peak early- and late-diastolic transmitral flow velocities corresponding to E and A waves, respectively. […]

Where [6] appears, read: Trials 1-3, 7 days, mice without I/R.

With `Cc1ccc(O)c(NC(=O)CCc2ccccc2)c1` [compound 147], in data set [1], the “blood brain barrier crossing” value is on record as “has the capacity to cross the blood brain barrier” and the “toxicity or deleterious off-target effects” value is “does not exhibit any apparent toxicity or deleterious off-target effects”. Moreover, in data set [2] (setting [6]), the “expression of pathology-associated genes Nppa, Nppb, Col1a1 or Myh7” value is listed as “None of the dosing protocols resulted in”; the “increased plasma cTnI” value is reported as “None of the dosing protocols resulted in”; the “pathological cardiac hypertrophy (heart weight to body weight)” value is “None of the dosing protocols resulted in”. In addition, in data set [2] (any of the trials, data not shown), the “liver or kidney deficits (steatosis by hepatic triglyceride accumulation, glomerular filtration rate by creatinine clearance)” value is “no apparent deficits were observed”. For the same compound, in data set [2] (over the course of 7 days), the cardiotoxicity result is “does not induce cardiotoxicity”. The “duration of ATF6-target gene induction” value in data set [3] is about 3 days. Further, the “expression levels of Erdj4 or Atf4 in hearts” value in data set [4] is on record as “no effect”. Besides, the “cardiac performance, chamber size, or pathological hypertrophy by echocardiography” value in data set [5] is “no effect”.

Source of the values: patent US20240207207A1, “METHODS FOR MITIGATING AND PREVENTING PROTEOSTASIS-BASED INJURIES” (San Diego State University (SDSU) Foundation, dba San Diego …, priority 2018, published 2024).
